US8067602B2, “Asymmetric cyanine fluorescent dyes, compositions and their use in staining biological samples” (Shenzhen Mindray Bio-Medical Electronics Co., Ltd., priority 2008, dated 2011)

Key:
[1] = Fluorescence quantum yield in ethanol; assay type: physicochemical; conditions: room temperature, triplicate, Rhodamine B as standard
Procedure: Each of the dyes were detected in triplicate at room temperature. Fluorescence quantum yields were calculated and averaged. With Rhodamine B as the standard (φF=0.97, ethanol), the fluorescence quantum yield for the known compound M in the ethanol solution was calculated to be φF=1.099×10^−2; for Dye-1, φF=1.590×10^−2; for Dye-2, φF=1.248×10^−2; and for Dye-3, φF=1.181×10^−2. The instrument used was UV-Vis spectrophotometer Model Lambda 35, and fluorescence spectrophotometer Model FL-4500.

salmon sperm DNA = test: Fluorescence intensity of dye in PBS with salmon sperm DNA (excitation 633 nm); assay type: binding; conditions: for fluorescence of the dye per se in PBS without nucleic acid: PBS without DNA/RNA; for Relative fluorescence intensity after binding DNA / Relative fluorescence intensity before binding DNA: in PBS; for Relative fluorescence intensity after binding DNA: bound with salmon sperm DNA; for Relative fluorescence intensity before binding DNA: no DNA; for Ratio of increase in fluorescence (after vs before binding): salmon sperm DNA in PBS
Procedure: An amount of Dye-1 was accurately weighed and sufficiently dissolved in 2.5 mL methanol/ethylene glycol (50:50 vol/vol) to prepare a dye solution at a concentration of 5 mM. This solution was filtered before use. Separate amounts of salmon sperm DNA were weighed and dissolved in PBS to obtain PBS buffers containing 3 mg/mL, 1 mg/mL, 0.3 mg/mL, 0.1 mg/mL of DNA. 2-μL aliquots of the prepared 5 mM dye solution were accurately measured and respectively combined in 1 mL PBS with 1 μL of the PBS buffers containing different concentrations of DNA. After reacting for a period of time, the complexes were detected for their emission spectra at the selected excitation wavelength of 633 nm. The detection temperature was at room temperature. The instrument used was fluorescence spectrophotometer Model FL-4500.
FIG. 2 is a comparison of the relative fluorescence strength of Dye-1 in PBS before and after it is bound with DNA.
(§1) The detection procedures followed were those described in Example 10 and Example 11. The fluorescence spectra for the complexes of Dye-2 with different concentrations of DNA or RNA are shown in FIG. 5 and FIG. 6, respectively. The comparisons of fluorescence for Dye-2 before and after it is bound with DNA or with RNA in PBS are shown in FIG. 7 and FIG. 8, respectively.
(§2) The detection procedures followed were those described in Example 10 and Example 11. The comparisons of fluorescence for Dye-3 before and after it bound with DNA or with RNA in PBS are shown in FIG. 9 and FIG. 10, respectively.
Table 1 compares the ratios of increase in fluorescence for Dye-1, Dye-2 and Dye-3 after vs before they bound with salmon sperm DNA in PBS.

[2] = system: soft-shelled turtle (Trionyx sinensis) liver RNA; test: Fluorescence intensity of dye in PBS with soft-shelled turtle liver RNA (excitation 633 nm); assay type: binding; conditions: for ability to bind to nucleic acids versus Dye-0: concluded from FIG. 11; for increase in fluorescence intensity after binding RNA, comparison of dyes: identical concentrations, FIG. 11; for Relative fluorescence intensity after binding RNA / Relative fluorescence intensity before binding RNA: in PBS; for Relative fluorescence intensity after binding RNA: bound with turtle liver RNA; for Relative fluorescence intensity before binding RNA: no RNA; for Ratio of increase in fluorescence (after vs before binding): turtle liver RNA in PBS
Procedure: An amount of Dye-1 was accurately weighed and sufficiently dissolved in 2.5 mL methanol/ethylene glycol (50:50 vol/vol) to prepare a dye solution at a concentration of 5 mM. This solution was filtered before use. Separate amounts of soft-shelled turtle (Trionyx sinensis) liver RNA were weighed and dissolved in PBS to obtain PBS buffers containing 30 μg/mL, 10 μg/mL, 3 μg/mL, 1 μg/mL of RNA. 2-μL aliquots of the prepared 5 mM dye solution were accurately measured and respectively combined in 1 mL PBS with 1 μL of the PBS buffers containing different concentrations of RNA. After reacting for a period of time, the complexes were detected for their emission spectra at the selected excitation wavelength of 633 nm. The detection temperature was at room temperature. The instrument used was fluorescence spectrophotometer Model FL-4500.
FIG. 4 is a comparison of the relative fluorescence strength of Dye-1 in PBS before and after it is bound with RNA. As can likewise be seen in the figure, when Dye-1 formed complexes with RNA, there occurred a rapid increase in fluorescence intensity accompanied by a certain degree of red shift of fluorescence, with the maximum […] peak at about 655 nm in the near-infrared region, which can avoid the interference from the background fluorescence of the organisms per se and therefore improve the accuracy of detection.
as §1, §2
Table 2 compares the ratios of increase in fluorescence for Dye-1, Dye-2 and Dye-3 after vs before they bound with soft-shelled turtle (Trionyx sinensis) liver RNA in PBS.
The detection procedure followed was that described in Example 10. The fluorescence spectra for Dye-1, Dye-2 and Dye-0 after they bound in identical concentrations with soft-shelled turtle (Trionyx sinensis) liver RNA are shown in FIG. 11.

[3] = ethanol; cited from earlier work

SMILES | fluorescence quantum yield φF [1] | Relative fluorescence intensity after binding DNA (salmon sperm DNA) | Relative fluorescence intensity before binding DNA (salmon sperm DNA) | Ratio of increase in fluorescence (after vs before binding) (salmon sperm DNA) | Relative fluorescence intensity after binding RNA [2] | Relative fluorescence intensity before binding RNA [2] | Ratio of increase in fluorescence (after vs before binding) [2] | change of fluorescence emission strength of dye/DNA complexes with DNA concentration (salmon sperm DNA; DNA buffers 0.1-3 mg/mL, FIG. 1) | fluorescence of the dye per se in PBS without nucleic acid (salmon sperm DNA) | change of fluorescence emission strength of dye/RNA complexes with RNA concentration ([2]; RNA buffers 1-30 μg/mL, FIG. 3) | ability to bind to nucleic acids versus Dye-0 [2] | increase in fluorescence intensity after binding RNA, comparison of dyes [2] | fluorescence quantum yield φF of the standard [3]
CCN1C=C/C(=C\C=C\c2sc3ccccc3[n+]2CC)c2ccccc21.[I-] [Dye-0, reference compound] | 1.099×10^−2 |  |  |  |  |  |  |  |  |  |  |  | 
CCOC(=O)CCCCC[n+]1c(/C=C/C=C2\C=CN(Cc3ccccc3)c3ccccc32)sc2ccccc21.[Br-] [Dye-1] | 1.590×10^−2 | 68.63 | 1.82 | 38 | 83.24 | 1.82 | 46 | increased rapidly with the increase in DNA concentration | scarcely generated any fluorescence | increased rapidly with the increase in RNA concentration | superior to Dye-0 | largest magnitude of increase in fluorescence intensity | 
CCN(CC)c1ccc2c(-c3ccccc3C(=O)O)c3ccc(=[N+](CC)CC)cc-3oc2c1.[Cl-] [Rhodamine B] |  |  |  |  |  |  |  |  |  |  |  |  | 0.97

Second part, led by results:

fluorescence quantum yield φF [1] | Relative fluorescence intensity after binding DNA (salmon sperm DNA) | Relative fluorescence intensity before binding DNA (salmon sperm DNA) | Ratio of increase in fluorescence (after vs before binding) (salmon sperm DNA) | Relative fluorescence intensity after binding RNA [2] | Relative fluorescence intensity before binding RNA [2] | Ratio of increase in fluorescence (after vs before binding) [2] | SMILES | change of fluorescence emission strength of dye/DNA complexes with DNA concentration (salmon sperm DNA; DNA buffers 0.1-3 mg/mL, FIG. 1) | fluorescence of the dye per se in PBS without nucleic acid (salmon sperm DNA) | change of fluorescence emission strength of dye/RNA complexes with RNA concentration ([2]; RNA buffers 1-30 μg/mL, FIG. 3) | ability to bind to nucleic acids versus Dye-0 [2] | increase in fluorescence intensity after binding RNA, comparison of dyes [2] | fluorescence quantum yield φF of the standard [3]
1.248×10^−2 | 102.93 | 0.97 | 106 | 37.28 | 0.97 | 38 | CCOC(=O)CCCN1C=C/C(=C\C=C\c2sc3ccccc3[n+]2CCO)c2ccccc21.[Br-] [Dye-2] |  | scarcely generated any fluorescence |  | superior to Dye-0 | marked increase in fluorescence intensity | 
1.181×10^−2 | 94.37 | 1.64 | 55 | 33.57 | 1.64 | 20 | OCCN1C=C/C(=C\C=C\c2sc3ccccc3[n+]2CCOc2ccccc2)c2ccccc21.[Br-] [Dye-3] |  | weak fluorescence |  |  |  | 
